The structures appear in SMILES notation.

Results on eight compounds are retold here after US5185320A, “O^56 -alkyl derivatives of aglycone and pseudo aglycones of teicoplanin” (Gruppo Lepetit S.p.A., priority 1989, dated 1993).

What all share (assay type): cell-based
Conditions in all cases: inoculum about 10^4 CFU/ml, 18-24 h at 37° C.

Test [1] relates to Staph. aureus Tour L 165. Nature of the test: MIC, standard dilution test, Staph. aureus Tour L 165. The method, then: (§1) ISOSENSITEST broth (Oxoid) and TOLLD-HEWITT broth (Difco) are used for growing staphylococci and streptococci, respectively. Broth cultures are diluted so that the final inoculum is about 10^4 colony forming units/ml (CFU/ml).
The test system of test [2] is Staph. haemolyticus L 602. The experiment in a line: MIC, standard dilution test, Staph. haemolyticus L 602. How it is done: as §1
The test system of test [3] is Staph. epidermidis ATCC 12228. Nature of the test: MIC, standard dilution test, Staph. epidermidis ATCC 12228. How it is done: as §1
Test [4] concerns Strep. pyogenes C 203. The experiment in a line: MIC, standard dilution test, Strep. pyogenes C 203. The method, then:
as §1

Test [5] has as its system Strep. pneumoniae UC41. Nature of the test: MIC, standard dilution test, Strep. pneumoniae UC41. The method, then:
as §1

For test [6], the system named is Strep. faecalis ATCC 7080. Nature of the test: MIC, standard dilution test, Strep. faecalis ATCC 7080. How it is done:
as §1

Test [7] relates to Strep. mitis L 796. Nature of the test: MIC, standard dilution test, Strep. mitis L 796. How it is done: as §1
Test [8] deals with Neisseria gonorrhoeae ISM68/126. Nature of the test: MIC, standard dilution test, Neisseria gonorrhoeae ISM68/126. How it is done: as §1
The subject of test [9] is Haemophilus influenzae ATCC 19418. The experiment in a line: MIC, standard dilution test, Haemophilus influenzae ATCC 19418. How it is done: as §1
Test [10] concerns Escherichia coli SKF 12140. Nature of the test: MIC, standard dilution test, Escherichia coli SKF 12140. The method, then:
as §1

In test [11] the test system is Proteus vulgaris ATCC 881. The experiment in a line: MIC, standard dilution test, Proteus vulgaris ATCC 881. How it is done:
as §1

In test [12] the test system is Pseudomonas aeruginosa ATCC 10145. The experiment in a line: MIC, standard dilution test, Pseudomonas aeruginosa ATCC 10145. How it is done: as §1

For the compound `COC(=O)C1NC(=O)C2NC(=O)C(NC(=O)C3NC(=O)C4NC(=O)C(Cc5ccc(c(Cl)c5)Oc5cc3cc(c5OCCO)Oc3ccc(cc3Cl)C2O)NC(=O)C(N)c2ccc(O)c(c2)Oc2cc(O)cc4c2)c2ccc(O)c(c2)-c2c(O)cc(O)cc21` (stereo not drawn) [Compound 8, O^56-(2-hydroxyethyl) deglucoteicoplanin methyl ester], the “Minimal inhibitory concentration (MIC)” value in test [1] was 0.125; in test [2] it was 2; in test [3], 0.125; in test [4], 0.063; in test [5], 0.125; in test [6], 0.125. The “Minimal inhibitory concentration (MIC)” value is 0.125 in test [7]; 32 in test [8]; 64 in test [9]; 32 in test [10]; above 128 in test [11]; above 128 in [12].

Turning to `CNC(=O)C1NC(=O)C2NC(=O)C(NC(=O)C3NC(=O)C4NC(=O)C(Cc5ccc(c(Cl)c5)Oc5cc3cc(c5OCCCCN)Oc3ccc(cc3Cl)C2O)NC(=O)C(N)c2ccc(O)c(c2)Oc2cc(O)cc4c2)c2ccc(O)c(c2)-c2c(O)cc(O)cc21` (stereo not drawn) [Compound 9, O^56-(4-aminobutyl)-deglucoteicoplanin methylamide], the “Minimal inhibitory concentration (MIC)” value in test [1] worked out at 0.25; in test [2] it was 0.25; in [3], 0.125; in test [4], 0.063; in test [5], 0.125; in [6] it was 0.125. Moreover, the “Minimal inhibitory concentration (MIC)” value in test [7] is 0.125; in [8], 64; in [9] it was 64; in test [10], 8; in [11], 32; in [12] it was 64.

For `COC(=O)C1NC(=O)C2NC(=O)C(NC(=O)C3NC(=O)C4NC(=O)C(Cc5ccc(c(Cl)c5)Oc5cc3cc(c5OCCCCN)Oc3ccc(cc3Cl)C2O[C@@H]2O[C@H](CO)[C@@H](O)[C@H](O)[C@H]2NC(C)=O)NC(=O)C(N)c2ccc(O)c(c2)Oc2cc(O)cc4c2)c2ccc(O)c(c2)-c2c(O[C@H]3O[C@H](CO)[C@@H](O)[C@H](O)[C@@H]3O)cc(O)cc21` (stereo partly drawn) [Compound 10, O^56-(4-aminobutyl)teicoplanin pseudoaglycone methyl ester], the “Minimal inhibitory concentration (MIC)” value in [1] stood at 2; in [2], 16; in test [3] it was 4; in test [4], 0.125; in test [5] it was 1; in [6], 4. Besides, the “Minimal inhibitory concentration (MIC)” value in test [7] was 1; in test [8], above 128; in test [9] it was above 128; in test [10], above 128; in test [11], above 128; in test [12], above 128.

Consider `COC(=O)C1NC(=O)C2NC(=O)C(NC(=O)C3NC(=O)C4NC(=O)C(Cc5ccc(c(Cl)c5)Oc5cc3cc(c5OCCBr)Oc3ccc(cc3Cl)C2O)NC(=O)C(N)c2ccc(O)c(c2)Oc2cc(O)cc4c2)c2ccc(O)c(c2)-c2c(O)cc(O)cc21` (stereo not drawn) [Compound 11, O^56-(2-bromoethyl)deglucoteicoplanin methyl ester], for which the “Minimal inhibitory concentration (MIC)” value in test [1] turned out to be 0.5; in [2] it was 2; in [3], 0.125; in test [4], 0.125; in test [5], 0.25; in [6], 1. For the same compound, the “Minimal inhibitory concentration (MIC)” value was 0.25 in test [7]; above 128 in [8]; 64 in [9]; 64 in [10]; above 128 in [11]; above 128 in test [12].

Take `N#CCOC(=O)C1NC(=O)C2NC(=O)C(NC(=O)C3NC(=O)C4NC(=O)C(Cc5ccc(c(Cl)c5)Oc5cc3cc(c5OCC#N)Oc3ccc(cc3Cl)C2O)NC(=O)C(N)c2ccc(O)c(c2)Oc2cc(O)cc4c2)c2ccc(O)c(c2)-c2c(O)cc(O)cc21.O=C(O)C(F)(F)F` (stereo not drawn) [Compound 12, O^56 -(cyanomethyl)deglucoteicoplanin cyanomethyl ester trifluoroacetate salt]: the “Minimal inhibitory concentration (MIC)” value was 0.125 in test [1]; 1 in test [2]; 0.063 in test [3]; 0.125 in test [4]; 0.125 in [5]; 1 in [6]. Besides, the “Minimal inhibitory concentration (MIC)” value in [7] was 0.125; in [8] it was above 128; in test [9] it was 64; in test [10], above 128; in [11], above 128; in [12] it was above 128.

On to `COC(=O)C1NC(=O)C2NC(=O)C(NC(=O)C3NC(=O)C4NC(=O)C(Cc5ccc(c(Cl)c5)Oc5cc3cc(c5OCCN3CCCC3)Oc3ccc(cc3Cl)C2O)NC(=O)C(N)c2ccc(O)c(c2)Oc2cc(O)cc4c2)c2ccc(O)c(c2)-c2c(O)cc(O)cc21.Cl.Cl` (stereo not drawn) [Compound 13, O^56-[2-(1-pyrrolidinyl)ethyl]deglucoteicoplanin methyl ester dihydrochloride], for which the “Minimal inhibitory concentration (MIC)” value in test [1] stood at 0.125; in test [2], 0.5; in test [3], 0.25; in test [4], 0.125; in test [5], 0.25; in test [6], 0.125. Besides, the “Minimal inhibitory concentration (MIC)” value is recorded as 0.125 in test [7]; 32 in [8]; 64 in [9]; 8 in test [10]; 128 in test [11]; 64 in test [12].

`COC(=O)C1NC(=O)C2NC(=O)C(NC(=O)C3NC(=O)C4NC(=O)C(Cc5ccc(c(Cl)c5)Oc5cc3cc(c5OCCN3CCOCC3)Oc3ccc(cc3Cl)C2O)NC(=O)C(N)c2ccc(O)c(c2)Oc2cc(O)cc4c2)c2ccc(O)c(c2)-c2c(O)cc(O)cc21.Cl.Cl` (stereo not drawn) [Compound 14, O^56-[2-(1-morpholinyl)ethyl]deglucoteicoplanin methyl ester dihydrochloride]: the “Minimal inhibitory concentration (MIC)” value in [1] is recorded as 0.25; in [2], 2; in test [3], 0.125; in test [4] it was 0.25; in test [5], 0.125; in test [6], 0.125. In addition, the “Minimal inhibitory concentration (MIC)” value is reported as 0.125 in test [7]; 64 in test [8]; 64 in test [9]; 32 in test [10]; above 128 in test [11]; above 128 in [12].

As for `NCCNCCOc1c2cc3cc1Oc1ccc(cc1Cl)C(O)C1NC(=O)C(NC(=O)C3NC(=O)C3NC(=O)C(Cc4ccc(c(Cl)c4)O2)NC(=O)C(N)c2ccc(O)c(c2)Oc2cc(O)cc3c2)c2ccc(O)c(c2)-c2c(O)cc(O)cc2C(C(=O)NCCN)NC1=O` (stereo not drawn) [Compound 15, O^56-[2-(1-ethylendiaminyl)ethyl]deglucoteicoplanin ethylenediamine amide], the “Minimal inhibitory concentration (MIC)” value is 0.125 in test [1]; 0.25 in test [2]; 0.125 in test [3]; 0.063 in test [4]; 0.125 in test [5]; 0.25 in [6]. Moreover, the “Minimal inhibitory concentration (MIC)” value stood at 0.25 in [7]; 64 in test [8]; 128 in test [9]; 8 in test [10]; 64 in test [11]; 64 in test [12].
